Results published in patent US11344496B2, “Methods for preparing stabilized amorphous drug formulations using acoustic fusion” (Merck Sharp & Dohme Corp., priority 2017, dated 2022).

Legend:
[1] = BCS (Biopharmaceutics Classification System) designation by solubility and permeability; assay type: physicochemical; parameters: key: BCS Class 1 describes compounds with high permeability and high solubility.; BCS Class 2 describes compounds with high permeability and low solubility.; BCS Class 3 describes compounds with low permeability and high solubility.; BCS Class 4 describes compounds with low permeability and low solubility
Source text: We tested a number of model drugs using the acoustic fusion methods, as described infra. The drugs tested are representative BCS Class 2 and Class 4 drugs. The BCS (Biopharmaceutics Classification System) designation is used to group compounds into classes based on their solubility and permeability (BCS guidance “Waiver of In vivo Bioavailability and Bioequivalence Studies for Immediate Release Solid Oral Dosage Forms Based on a Biopharmaceutics Classification System,” U.S. Department of Health and Human Services, Food and Drug Administration):
BCS Class 1 describes compounds with high permeability and high solubility.
BCS Class 2 describes compounds with high permeability and low solubility.
BCS Class 3 describes compounds with low permeability and high solubility.
BCS Class 4 describes compounds with low permeability and low solubility.
Under the BCS Classification System, a drug is considered highly soluble if fully solubilized in 250 mL water at the highest therapeutic dose at any physiological pH. A drug is considered highly permeable if the extent of oral absorption is greater than 90%.

[2] = Rat oral pharmacokinetic study of torcetrapib formulations; assay type: in vivo; settings: male, Wistar-Han, plasma, rats, 10 mg/kg
Procedure: The in vivo absorption of Torcetrapib after oral administration of the Torcetrapib-copovidone-TPGS dispersion described in Example 4 was investigated in rats at a dose level of 10 mg/kg. Materials and methods used for the rat pharmacokinetic study are provided below. Crystalline drug powders and drug-polymer dispersion formulations were also evaluated as control formulations. The drug powders and drug-polymer dispersions were dosed as suspensions in 0.5% of methylene cellulose. The Torcetrapib-polymer dispersion was used as a benchmark formulation for enhancing the drug's solubility and oral absorption.
Male Wistar-Han rats were used for oral administration studies. All animals were fasted overnight before dosing, provided water ad libitum, and fed 4 hours following drug treatment. The fasted animals were orally given torcetrapib formulations by gavage (n=3) at a torcetrapib dose of 10 mg/kg. The formulations included a suspension of crystalline torcetrapib powder in 0.5% of methyl cellulose (MC), a suspension of torcetrapib-polymer dispersion in 0.5% of acidified MC (5 mM HCl added to prevent dissolution of the polymer in the vehicle). Serial blood samples were collected at 0.25, 0.5, 1, 2, 4, 8, 12, 18, and 24 hour post-dose and placed into EDTA-containing tubes and centrifuged. […]
Torcetrapib plasma concentrations were determined by LC-MS/MS following protein precipitation with acetonitrile. […] Analyte response was measured by multiple reaction monitoring (MRM) of transitions unique to each compound.
Calibration curves were generated and verified using standard and quality control samples prepared from an initial weighing of high purity compound. […] The limit of quantification was 1 ng/mL. […]
Pharmacokinetic parameters were calculated by established non-compartmental methods. The area under the plasma concentration vs. time curve from time zero to time t(AUC0-t) was determined using the Watson software (version 7.3) with linear trapezoidal interpolation in the ascending slope and logarithmic trapezoidal interpolation in the descending slope.

Cc1cccc(C)c1OCC(=O)N[C@@H](Cc1ccccc1)[C@@H](O)C[C@H](Cc1ccccc1)NC(=O)[C@H](C(C)C)N1CCCNC1=O [Lopinavir, (αS)—N-[(1S,3S,4S)-4-[[2-(2,6-Dimethylphenoxy)acetyl]amino]-3-hydroxy-5-phenyl-1-(phenylmethyl)pentyl]tetrahydro-α-(1-methylethyl)-2-oxo-1(2H)-pyrimidineacetamide]
BCS Class [1]: BCS class 2

CCOC(=O)N1c2ccc(C(F)(F)F)cc2[C@@H](N(Cc2cc(C(F)(F)F)cc(C(F)(F)F)c2)C(=O)OC)C[C@H]1CC [Torcetrapib, (2R,4S)-4-[(3,5-Bis-trifluoromethylbenzyl)methoxycarbonylamino]-2-ethyl-6-trifluoromethyl-3,4-dihydro-2H-quinoline-1-carboxylic acid ethyl ester]
BCS Class [1]: BCS Class 2
Tmax ([2]; mean n = 3): 6 h
AUC(0-t) ([2]; mean n = 3, read-out: AUC(0-24)): 0.707 µM·h
Cmax ([2]; suspension in 0.5% methyl cellulose, mean n = 3): 84 nM
